The record followed here is US8691755B2, “Pegylated C-peptide” (Cebix AB, priority 2010, dated 2014).

Data set [1] is described as follows: Repeated-dose GLP toxicology studies with unmodified C-peptide, continuous s.c. infusion. In kind it is in vivo, Cynomolgus monkey. Conditions: for No Observed Effect Level: continuous s.c. infusion; for level at time molar: cynomolgus monkey, plasma, sc, read-out: C-peptide Css. On the procedure:
(§1) In the five GLP toxicology studies conducted with non-PEGylated C-peptide for up to 4 weeks in rats and 13 weeks in Cynomolgus monkeys, the C-peptide was continuously infused s.c. via implanted osmotic pumps. The plasma concentration of C-peptide was measured periodically throughout the studies and a steady-state concentration (Css) over the duration of exposure has been determined for each study as shown in Table E6.

Assay in data set [2]: as above
It is filed as in vivo, Sprague Dawley rat. Conditions: for No Observed Effect Level: continuous s.c. infusion; for level at time molar: Sprague Dawley, rat, plasma, sc, read-out: C-peptide Css. On the procedure:
as §1

The nature of data set [3]: PK of unmodified C-peptide in beagle dogs, single S.C. dose (first PK study).
Procedure: A pharmacokinetic (PK) study was conducted to determine the C-peptide PK profile with unmodified C-peptide in beagle dogs.
Plasma samples were obtained after centrifugation of the blood (3,000 rpm for 10 minutes) and stored at −80° C. until analysis. […] Results were expressed as C-peptide concentrations. For the PK analysis, the below quantitation level (BQL) was treated as zero and nominal time points were used for all calculations. PK parameters were determined by standard model independent methods based on the individual plasma concentration-time data for each animal using model 200 in WinNonlin Professional 5.2.1 (Pharsight Corp., Mountain View, Calif.).
Where [4] appears, read: both, beagle, dog, plasma, sc, 0.5 mg/kg.

Where two headings read alike, the source gives them in different places.

What is called AUC(0-t) is exposure summed from dosing to a finite time, without extrapolation to infinity. Higher therefore signals more exposure. What is called Cmax is the maximum level reached in the sampled fluid or tissue. As for `CC(C)C[C@H](NC(=O)[C@H](C)NC(=O)[C@H](CC(C)C)NC(=O)[C@@H]1CCCN1C(=O)[C@H](CCC(N)=O)NC(=O)[C@H](CC(C)C)NC(=O)[C@H](CO)NC(=O)CNC(=O)[C@H](C)NC(=O)CNC(=O)[C@@H]1CCCN1C(=O)CNC(=O)CNC(=O)CNC(=O)[C@H](CC(C)C)NC(=O)[C@H](CCC(=O)O)NC(=O)[C@@H](NC(=O)[C@H](CCC(N)=O)NC(=O)CNC(=O)[C@@H](NC(=O)[C@H](CCC(N)=O)NC(=O)[C@H](CC(C)C)NC(=O)[C@H](CC(=O)O)NC(=O)[C@H](CCC(=O)O)NC(=O)[C@H](C)NC(=O)[C@@H](N)CCC(=O)O)C(C)C)C(C)C)C(=O)N[C@@H](CCC(=O)O)C(=O)NCC(=O)N[C@@H](CO)C(=O)N[C@@H](CC(C)C)C(=O)N[C@@H](CCC(N)=O)C(=O)O` [unmodified C-peptide], the “No Observed Effect Level” value is reported as 3.6 mg/kg/day in data set [1] (13 weeks), 2 mg/kg/day in data set [1] (14 days), 0.5 mg/kg/day in data set [2] (4 weeks) and 2 mg/kg/day in data set [2] (14 days). For the same compound, the level at time molar is 40 nM in data set [1] (13 weeks at NOEL 3.6 mg/kg/day, mean of days 2, 28, 37/38, 56, 91); 84 nM in data set [1] (14 days at NOEL 2 mg/kg/day, mean of days 2, 10, 14); 4.2 nM in data set [2] (0.5 mg/kg/day, 4 weeks at NOEL 0.5 mg/kg/day, mean of days 2, 14, 28); 27 nM in data set [2] (2 mg/kg/day, 14 days at NOEL 2 mg/kg/day, mean of days 2, 10, 14). In data set [3] (setting [4]), this compound gave an AUC(0-t) of 1860 ng·h/mL. The concentration in data set [3] (setting [4]) peaked (Cmax) at 757 ng/mL. Moreover, in data set [3] (single S.C. dose 0.5 mg/kg), the “circulating levels of C-peptide below quantitation level (BQL)” value is on record as “BQL within half a day”. For the same compound, the “tolerability (clinical abnormalities)” value in data set [3] (single S.C. dose 0.5 mg/kg) is “well tolerated”.
